Several values for one entry are separate records, joined by “and”; a condition that tells them apart may be missing. Equal entries are not always repeated. Entries after “also recorded” stand apart in the source; their conditions may differ.
Test system: β-arrestin1 recruitment to B2R
Assay: BRET recruitment of β-arrestin1 to B2R
Format: cell-based, human
Procedure: HEK293SL cells were seeded at a density of 7.5 × 10^5 cells per 100-mm dish and 24 h later, transiently transfected as such. For receptor internalization experiments, cells were transfected with 0.12 μg AT1R-RlucII, B2R-RlucII, or β2AR-RlucII and 0.48 μg of either rGFP-CAAX (to assess removal from the PM) or rGFP-FYVE (to assess accumulation in the endosomes). For β-arrestin recruitment assays, cells were transfected with 0.48 μg of receptor-YFP along with 0.12 μg of β-arrestin-RlucII. For β-arrestin/AP-2 binding experiments, cells were transfected with 1 μg Flag-AT1R, 1 μg β2-Adaptin-YFP, and 0.12 μg β-arrestin2-RlucII. For G protein activation, cells were transfected with 3 μg of sp-Flag-AT1R along with either 4.5 μg of the Gαq-polycistronic BRET sensor or 0.24 μg of the Gαi3-RlucII and 0.6 μg of GFP10-Gγ2 and Gβ1 sensors or 0.12 μg PKN-RBD-RlucII and 0.48 μg of rGFP-CAAX. For PKC activation, cells were transfected with 3 μg of sp-Flag-AT1R and 0.18 μg of the PKC sensor. For GTPase activation experiments, cells were transfected with 1 μg Flag-AT1R, 0.48 μg of rGFP-CAAX, and either 0.12 μg of GGA3-PBD-RlucII, PAK-CRIB-RlucII or Raf-RBD-RlucII. For biosensor validation experiments, cells were additionally transfected with 500 ng Flag-K-Ras-WT, Flag-K-Ras-G12V, Flag-K-Ras-SOS-CAAX, HA-ARF6-WT, HA-ARF6-T27N, Myc-Rac1-WT, Myc-Rac1-Q61L or Myc-Rac1-T17N. For PI3K/Akt activation experiments, cells were transfected with 0.48 μg of rGFP-CAAX and 0.12 μg of Akt (PH)-RlucII. After 18 h of transfection, the media was replaced and cells were divided for subsequent experiments. Cells were detached and seeded onto poly-L-ornithine-coated 96-well flat white bottom plates (BrandTech Scientific) at a density of 2.5 × 10^4 cells per well in media. The next day, cells were washed once with Tyrode’s buffer (140 mM NaCl, 2.7 mM KCl, 1 mM CaCl2, 12 mM NaHCO3, 5.6 mM D-glucose, 0.5 mM MgCl2, 0.37 mM NaH2PO4, 25 mM HEPES, pH 7.4) and left in Tyrode’s buffer. For kinetics of β-arrestin recruitment or β-arrestin binding to receptor and AP-2 experiments, cells were serum starved for 30 min, pretreated with 21 (50 µM) or Barbadin (100 µM) for 30 min, stimulated with 100 nM AngII or 1 µM BK and BRET signals were monitored at indicated times using a Victor X Light plate reader (PerkinElmer). Coelenterazine H (final concentration of 5 µM) was added 3–5 min prior to BRET measurements. Filter set was 460/80 nm and 535/30 nm for detecting the RlucII Renilla luciferase (donor) and YFP (acceptor) light emissions, respectively. The BRET ratio was determined by calculating the ratio of the light emitted by YFP over the light emitted by the RlucII. For G protein activation, cells were serum starved, pretreated with compounds for 30 min, stimulated with 100 nM AngII for 2 min (Gαq, Gαi3, and Rho sensors) or 5 min (PKC sensor). For the kinetics of GTPase and PI3K/Akt activation, cells were serum starved, pretreated with 21 (50 µM) or Wortmannin (200 nM) for 30 min, stimulated with ligand (100 nM AngII or 100 ng/ml EGF) and BRET signals were monitored at indicated times. For concentration-response curves, cells were serum-starved, pretreated with various concentrations of compounds for 30 min and stimulated with ligand (100 nM AngII, 1 µM BK, 10 µM Isoproterenol (Iso) or 100 ng/ml EGF) in Tyrode’s buffer for 30 min for receptor internalization, 10 min for ARF6, 2 min for Rac and Rho activation and 5 min for Ras activation and PI3K/Akt activation. BRET signals were monitored using a Synergy2 (BioTek) microplate reader and coelenterazine 400a (final concentrations of 5 µM) added 3–5 min prior to BRET measurements. Filter set was 410/80 nm and 515/30 nm for detecting the RlucII Renilla luciferase (donor) and rGFP/GFP10 (acceptor) light emissions, respectively. The BRET ratio was determined by calculating the ratio of the light emitted by rGFP/GFP10 over the light emitted by the RlucII.

For `CC(C)C(=O)N1CCN(c2ccc(NC(=O)c3cc4ccccc4o3)cc2Cl)CC1` [Compound 21], the “β-arrestin1 recruitment to B2R at the PM” value (50 μM) was “did not preclude; also recorded: lack of inhibition”, the “BK-promoted BRET, Barr1” value (Time 0 min) was 0 and the “BK-promoted BRET, Barr1” value (Time 5 min, listed as Comp 21) was 0.04767 and 0.09406 and 0.08157. For the same compound, the “BK-promoted BRET, Barr1” value (Time 10 min, listed as Comp 21) was 0.06518 and 0.1019 and 0.08421, the “BK-promoted BRET, Barr1” value (Time 15 min, listed as Comp 21) was 0.06934 and 0.1045 and 0.09014 and the “BK-promoted BRET, Barr1” value (Time 30 min, listed as Comp 21) was 0.0673 and 0.09261 and 0.08457. The “BK-promoted BRET, Barr1” value (Time 60 min, listed as Comp 21) was 0.06921 and 0.07361 and 0.07333.
